Values quoted from earlier work in patent US8877698B2, “Method and composition for disinfecting hard surfaces” (priority 2001, dated 2014).

Test system: Mycobacterium tuberculosis var. bovis and poliovirus

## CCO [ethanol]
  concentrations needed to kill resistant organisms: 70-90%
